In brackets after ≈: the same amount, converted by molar mass. Like-named read-outs stand apart in the source and are kept apart here.
Experiments:
Type in all cases: cell-based
E. cloacae = assay: In vitro antibacterial activity, microdilution MIC, E. cloacae; conditions: Enterobacter cloacae, microdilution method, read-out: Minimal Inhibitory Concentration MIC
Text: (§1) The compounds of the invention display antibacterial activity when tested by the microdilution method as described in Heifetz, et al, Antimicr. Agents and Chemoth., 6, 124 (1974), which is incorporated herein by reference.
(§2) By use of this method, the following minimum inhibitory concentration values (MICs in μg/ml) were obtained for representative compounds of the invention.

P. aeruginosa = assay: In vitro antibacterial activity, microdilution MIC, P. aeruginosa; conditions: Pseudomonas aeruginosa, microdilution method, read-out: Minimal Inhibitory Concentration MIC
Text: as §1, §2

E. coli = assay: In vitro antibacterial activity, microdilution MIC, E. coli; conditions: Escherichia coli, microdilution method, read-out: Minimal Inhibitory Concentration MIC
Text: as §1, §2

S. pyogenes = assay: In vitro antibacterial activity, microdilution MIC, S. pyogenes; conditions: Streptococcus pyogenes, microdilution method, read-out: Minimal Inhibitory Concentration MIC
Text: as §1, §2

S. pneumoniae = assay: In vitro antibacterial activity, microdilution MIC, S. pneumoniae; conditions: Streptococcus pneumoniae, microdilution method, read-out: Minimal Inhibitory Concentration MIC
Text: as §1, §2

P. rettgeri = assay: In vitro antibacterial activity, microdilution MIC, P. rettgeri; conditions: Providencia rettgeri, microdilution method, read-out: Minimal Inhibitory Concentration MIC
Text: as §1, §2

S. faecalis = assay: In vitro antibacterial activity, microdilution MIC, S. faecalis; conditions: Enterococcus faecalis, microdilution method, read-out: Minimal Inhibitory Concentration MIC
Text: as §1, §2

K. pneumoniae = assay: In vitro antibacterial activity, microdilution MIC, K. pneumoniae; conditions: Klebsiella pneumoniae, microdilution method, read-out: Minimal Inhibitory Concentration MIC
Text: as §1, §2

S. aureus = assay: In vitro antibacterial activity, microdilution MIC, S. aureus; conditions: microdilution method; for MIC: Staphylococcus aureus, first S. aureus line (strain not given), read-out: Minimal Inhibitory Concentration MIC; for Minimal Inhibitory Concentration MIC: second S. aureus line (strain not given)
Text: as §1, §2

[1] = first E. coli line (strain not given)
[2] = second E. coli line, last of table (strain not given)

Row | Structure (SMILES) | MIC (E. cloacae) | MIC (P. aeruginosa) | MIC (E. coli; [1]) | MIC (E. coli; [2]) | MIC (S. pyogenes) | MIC (S. pneumoniae) | MIC (P. rettgeri) | MIC (S. faecalis) | MIC (K. pneumoniae) | MIC (S. aureus) | Minimal Inhibitory Concentration MIC (S. aureus)
1 | CCn1cc(C(=O)O)c(=O)c2cc(F)c(C3CCN(Cc4ccccc4)C3)nc21 (stereo not shown) [Compound 10] | 12.5 µg/mL (≈ 31.6 µM) | > 25 µg/mL | 12.5 µg/mL (≈ 31.6 µM) | 12.5 µg/mL (≈ 31.6 µM) | 12.5 µg/mL (≈ 31.6 µM) | 12.5 µg/mL (≈ 31.6 µM) | > 25 µg/mL | 25 µg/mL (≈ 63.2 µM) | 25 µg/mL (≈ 63.2 µM) | 6.3 µg/mL (≈ 15.9 µM) | 6.3 µg/mL
2 | C=Cc1c(F)cc2c(=O)c(C(=O)O)cn(C3CC3)c2c1F [Compound 5, 1-Cyclopropyl-7-ethenyl-6,8-difluoro-1,4-dihydro-4-oxo-3-quinolinecarboxylic acid] | 0.1 µg/mL (≈ 0.343 µM) | 1.6 µg/mL (≈ 5.49 µM) | 0.2 µg/mL (≈ 0.687 µM) | 0.1 µg/mL (≈ 0.343 µM) | 0.8 µg/mL (≈ 2.75 µM) | 0.8 µg/mL (≈ 2.75 µM) | 0.4 µg/mL (≈ 1.37 µM) | 0.2 µg/mL (≈ 0.687 µM) | 0.4 µg/mL (≈ 1.37 µM) | ≤ 0.025 µg/mL | ≤ 0.025 µg/mL
